Experimental findings from paper PMC9964244, “Effects of Dimerization, Dendrimerization, and Chirality in p-BthTX-I Peptide Analogs on the Antibacterial Activity and Enzymatic Inhibition of the SARS-CoV-2 PL^pro Protein” (Pharmaceutics, 2023) are described below.

Bridge positions count the residues as written; N and C are the ends. Square brackets hold non-standard residues; d marks the D form. Ends that are not written are not given here. I, II: the chains in the order shown.

The test system of one series is A. baumannii ATCC 19606. The experiment in a line: MIC/MBC, broth microdilution and subculture on CA-MH agar. The class given is cell-based, Acinetobacter baumannii. As to conditions: triplicate, mode. The procedure: (§1) Bacterial isolates from the American Type Culture Collection (ATCC) were obtained from the Collection of Reference Bacteria on Health Surveillance, Oswaldo Cruz Foundation (FIOCRUZ) after phenotypic and molecular quality control and were registered at SISGEN under the number ADB556B. The minimum inhibitory concentration (MIC) was determined as previously described by Santos-Filho et al., 2021 [17], using the broth microdilution method. The MIC was the lowest concentration that inhibited microbial growth. […] MBC was defined as the lowest peptide concentration with no visible growth on the plate. […] The assay was performed in triplicate, and the values represent the mode of the obtained results.
(§2) Thus, to assess the relevance of the antimicrobial effect of p-Bth analogs, their Minimum Inhibitory Concentration (MIC) and Minimum Bactericidal Concentration (MBC) were analyzed against relevant bacteria. The evaluated strains were the Gram-positives: S. aureus ATCC 25923, S. epidermidis ATCC 35984, E. faecalis ATCC 29212, and E. faecium ATCC […] (Table 1); and the Gram-negatives: K. pneumoniae ATCC 700603, E. coli ATCC 25922, A. baumannii ATCC 19606, and P. aeruginosa ATCC 27853 (Table 2).

In the next series the test system is E. faecium ATCC 700221. The description is as above. The class given is cell-based, Enterococcus faecium. The conditions noted are these: triplicate, mode. The procedure: as §1, §2
Another series relates to erythrocytes. The series is described as follows: Hemolysis assay. The series is classed as cell-based. The conditions noted are these: at 512 µg/mL, 1 h, 37 °C, Triton X-100 1% positive control, duplicate. Here is the method: Peptide hemolytic activity was determined as previously described^15. Peptides were incubated with erythrocytes in the range from 512 μg/mL to 0.06 μg/mL for 1 h at 37 °C. Triton X-100 1% was used as a positive control for hemolysis. Assays were performed in duplicate. The Research Ethics Committee approved this project under the number 90291518.4.0000.5426.

The subject of series [1] is K. pneumoniae ATCC 700603. The experiment in a line: MIC/MBC, broth microdilution and subculture on CA-MH agar. The class given is cell-based, Klebsiella pneumoniae. As to conditions: triplicate, mode. The procedure: as §1, §2
For orientation: Broth dilution looks for growth in wells or tubes with falling amounts of substance.

The next series concerns P. aeruginosa ATCC 27853. The series is described as above. The series is classed as cell-based, Pseudomonas aeruginosa. The conditions noted are these: triplicate, mode. The procedure:
as §1, §2

The next series has as its system E. faecalis ATCC 29212. The series is described as above. The class given is cell-based. The conditions noted are these: triplicate, mode. Here is the method:
as §1, §2

The test system of the next series is E. coli ATCC 25922. Described as above. The series is classed as cell-based. The conditions noted are these: triplicate, mode. Here is the method:
as §1, §2

The subject of series [2] is S. epidermidis ATCC 35984. The series is described as above. The series is classed as cell-based. The conditions noted are these: triplicate, mode. Here is the method: as §1, §2
A further series concerns the target T1, SARS-CoV-2 PL^pro (Severe acute respiratory syndrome coronavirus 2, UniProt P0DTD1).
T1 construct: made in house
The experiment in a line: PL^pro enzymatic inhibition assay. The conditions noted are these: PL^pro from SARS-CoV-2. The series is classed as biochemical.

The next series has as its system S. aureus ATCC 25923. The experiment in a line: MIC/MBC, broth microdilution and subculture on CA-MH agar. The series is classed as cell-based, Staphylococcus aureus. As to conditions: triplicate, mode. The procedure:
as §1, §2

Where [3] appears, read: subculture on CA-MH agar, 37 °C, 24 h.

One may read the MIC as the lowest concentration found to suppress growth. By inhibition is commonly meant the drop in the measured response relative to a control, in per cent. In general, IC50 refers to the concentration needed to halve the response being measured. “I: [dK][dK][dY][dR][dY][dH][dL][dK][dP][dF]KK-NH2 / II: [dK][dK][dY][dR][dY][dH][dL][dK][dP][dF]K / III: [dK][dK][dY][dR][dY][dH][dL][dK][dP][dF] / IV: [dK][dK][dY][dR][dY][dH][dL][dK][dP][dF] (amide I:11-IV:C, I:12-II:C, II:11-III:C) [D-tetramer]”: the MIC in the series with A. baumannii ATCC 19606 (broth microdilution) worked out at 5 µM; against E. faecium ATCC 700221 (broth microdilution), 2 µM; in [1] (broth microdilution), 5 µM; in the series on P. aeruginosa ATCC 27853 (broth microdilution), 5 µM; against E. faecalis ATCC 29212 (broth microdilution) it was 5 µM; in the series with E. coli ATCC 25922 (broth microdilution) it was 5 µM. In addition, the results for the minimal inhibitory concentration (MIC) (in series [2] (broth microdilution); against S. aureus ATCC 25923 (broth microdilution)) were 2 µM and 10 µM, respectively. The MBC in the series on A. baumannii ATCC 19606 (setting [3]) is 32 µg/mL; with E. faecium ATCC 700221 (setting [3]), 16 µg/mL; in series [1] (setting [3]), 32 µg/mL; against P. aeruginosa ATCC 27853 (setting [3]), 64 µg/mL; with E. faecalis ATCC 29212 (setting [3]), 32 µg/mL; against E. coli ATCC 25922 (setting [3]), more than 128 µg/mL. Moreover, the MBC turned out to be 16 µg/mL in [2] (setting [3]) and 64 µg/mL in the series on S. aureus ATCC 25923 (setting [3]). This substance also returned a hemolysis with erythrocytes of 28%. In addition, the inhibition at 10 µM at SARS-CoV-2 PL^pro (peptide 10 µM) worked out at 94 ± 3%. The substance also displayed an IC50 on SARS-CoV-2 PL^pro (two independent experiments) of 2.7 ± 0.5 µM.
